Experimental data as given in PubChem BioAssay (NCI).
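How tested: cells in 96-well plates exposed to compound for 48 hours at five concentrations. GI50 marks 50% less growth. At the TGI there is no net growth.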

How the values were obtained:
Experiment in all cases: NCI tumour cell line growth inhibition, 48 h
SK-OV-3 ovarian = test system: SK-OV-3 ovarian
SF-295 CNS = test system: SF-295 CNS
RPMI-8226 leukemia = test system: RPMI-8226 leukemia
HCT-15 colon = test system: HCT-15 colon
M14 melanoma = test system: M14 melanoma
MOLT-4 leukemia = test system: MOLT-4 leukemia
NCI-H460 lung = test system: NCI-H460 lung
UACC-257 melanoma = test system: UACC-257 melanoma
NCI/ADR-RES ovarian = test system: NCI/ADR-RES ovarian
MDA-MB-435 = test system: MDA-MB-435

Row | Structure (SMILES) | TGI (SK-OV-3 ovarian) [µM] | TGI (SF-295 CNS) [µM] | TGI (RPMI-8226 leukemia) [µM] | TGI (HCT-15 colon) [µM] | TGI (M14 melanoma) [µM] | TGI (MOLT-4 leukemia) [µM] | TGI (NCI-H460 lung) [µM] | TGI (UACC-257 melanoma) [µM] | GI50 (SK-OV-3 ovarian) [µM] | GI50 (UACC-257 melanoma) [µM] | GI50 (NCI/ADR-RES ovarian) [µM] | TGI (NCI/ADR-RES ovarian) [µM] | GI50 (SF-295 CNS) [µM] | GI50 (RPMI-8226 leukemia) [µM] | GI50 (HCT-15 colon) [µM] | GI50 (M14 melanoma) [µM] | GI50 (MOLT-4 leukemia) [µM] | GI50 (NCI-H460 lung) [µM] | GI50 (MDA-MB-435) [µM] | TGI (MDA-MB-435) [µM]
1 | COc1ccc(C(C2=C(C)C(=O)c3ccccc3C2=O)c2ccc(C(C)C)cc(=O)c2O)cc1 (stereo not given) | 14.6 | 23 | > 100 | 32.2 | 6.24 | > 100 | 12.6 |  |  |  |  |  |  |  |  |  |  |  |  | 
2 | Fc1cccc(Cl)c1C1SCc2nc3ccccc3n21 (stereo not given) | 62.2 | 95.2 | 60.2 | > 100 | > 100 | 52.1 | > 100 | 72.7 |  |  |  |  |  |  |  |  |  |  |  | 
3 | Cc1cc(O)c2c(c1)C(O)(c1ccc3c(c1O)C(=O)c1c(O)cc(C)cc1C3(O)C1OC(CO)C(O)C(O)C1O)c1cccc(O)c1C2=O (stereo not given) | 31.4 | 24.9 | > 100 | 26.1 | 30 | 32.6 | 27.9 | 28.7 |  |  |  |  |  |  |  |  |  |  |  | 
4 | O=C(c1ccccc1)c1c(CC(O)c2cccnc2)n(C(=O)c2ccccc2)c2ccccc12 (stereo not given) |  | 35.6 | 44.2 | 60.3 | 33.5 | 47.7 | 36.4 | 42 |  |  |  |  |  |  |  |  |  |  |  | 
5 | CC(C)N(C(=O)C12C3C4C1C1C2C3C41C(O)C(C)(C)C)C(C)C (stereo not given) | > 50 | > 50 |  | > 50 | > 50 | > 50 |  |  |  |  |  |  |  |  |  |  |  |  |  | 
6 | Cc1cc([N+](=O)[O-])c(C)c2c1[nH]c1ccc(/C(CCC3CCCC3)=N\N)cc12 |  | 38.1 | 62.2 | 29.2 | 39.5 | 39 | > 100 | 42.7 |  |  |  |  |  |  |  |  |  |  |  | 
7 | Cc1c(C)c2cc3c(=O)ccoc3c(C)c2oc1=O | > 100 | > 100 | > 100 | > 100 | > 100 | 92.7 | > 100 | > 100 |  |  |  |  |  |  |  |  |  |  |  | 
8 | O=C1[C@@H](c2ccc(Cl)cc2)[C@H]2CC=C[C@H]2N1O | > 100 | > 100 | > 100 | > 100 | > 100 | > 100 |  | > 100 |  |  |  |  |  |  |  |  |  |  |  | 
9 | COc1ccc(C(=O)N2c3ccccc3Sc3ccccc32)c(F)c1 | > 100 | > 100 | 63 | > 100 | > 100 | > 100 | > 100 | > 100 | 4.13 | > 100 | 0.517 | > 100 | 0.395 | 0.922 | 0.419 | 0.371 | 0.715 | 0.485 |  | 
10 | C=C(C)C1CC2C(C)=C(OC(C)=O)C1n1c(=O)c3cc4ccccc4cc3c(=O)n12 (stereo not given) | > 100 | > 100 | > 81.3 | > 100 | > 100 | > 100 | > 100 | > 100 |  |  |  |  |  |  |  |  |  |  |  | 
11 | C[n+]1cc2c3c(ccc2c2ccc4cc5c(cc4c21)OCO5)OCO3 | 2.45 | 2.53 | 1.88 | 2.29 | 1.6 | 0.697 | 3.7 | 2.43 | 1.21 | 1.18 |  |  | 1.22 | 0.365 | 0.631 | 0.412 | 0.3 | 1.29 | 0.317 | 1.11
12 | CC[O-].CC[O-].O=C1C(=C([O-])c2ccccc2)C(=O)c2ccccc21.O=C1C(=C([O-])c2ccccc2)C(=O)c2ccccc21.[Ti+4] |  | > 100 | > 100 | > 100 | > 100 | > 100 | > 100 | > 100 |  | > 100 |  |  | 98.4 | 42.5 | 52.9 | > 100 | > 100 | 42.9 |  | 
13 | O=[N+]([O-])c1ccc(N=Nc2c(O)[nH]c3ccc([N+](=O)[O-])cc23)cc1 | 58.5 | 27.5 | 36.2 | > 100 | 38 | > 100 | 26.4 | 59.7 |  |  |  |  |  |  |  |  |  |  |  | 
14 | CC(C)c1ccc2nc3ccc(C(=O)NCCN(C)C)cn3c(=O)c2c1 | 33.5 | 23.8 |  | 28.5 | 28.3 | 49.8 | 33.7 | 27.8 |  |  |  | 62.9 |  |  |  |  |  |  |  | 
15 | Cc1cc(C)c2c(c1)CN1CN2Cc2cc(C)cc(C)c21 | 86.5 | 37.4 | 52.2 |  | 51.8 | 63.1 | 29.6 |  |  |  |  |  |  |  |  |  |  |  |  | 
16 | Cc1cc(Cl)ccc1NC(=O)C(=O)Cc1nc2ccc(C(=O)c3ccccc3)cc2[nH]c1=O | > 100 | > 100 |  | > 100 | > 100 | > 100 | > 100 | > 100 |  |  |  |  |  |  |  |  |  |  |  | 
17 | COC(=O)C1=CCON(c2ccccc2)C1c1ccccc1 (stereo not given) | > 100 |  | > 100 | > 100 | > 100 | > 100 | > 100 |  |  |  |  |  |  |  |  |  |  |  |  | 
18 | COc1ccc(OC)c(-c2cc(-c3ccccc3)nn2-c2ccc(S(=O)(=O)NC(C)=O)cc2)c1 |  | 35.1 | 4.36 | 10.2 | 8.74 | > 100 | > 100 |  |  |  | 3.38 | 11.5 | 16.1 | 1.97 | 3.72 | 2.74 | 6.57 | 13.2 | 5.77 | 22.9
19 | O=c1oc2ccccc2c(O)c1C=NC(=S)c1ccncc1 | > 100 | > 100 |  | > 100 | > 100 | > 100 | > 100 | > 100 |  |  |  | > 100 |  |  |  |  |  |  |  | > 100
20 | COc1cc(/C=C2\CN(C)CC3=C2Nc2nc(SC)[nH]c(=O)c2C3c2cc(OC)c(OC)c(OC)c2)cc(OC)c1OC (stereo not given) | 12.5 | 5.47 |  | 4.79 | 9.44 | 88 | 5.4 | 7.63 | 3.07 | 2.24 | 3.6 | > 100 | 2.24 |  | 2.07 | 2.98 | 2.92 | 2.3 | 2.51 | 8.46
21 | C/C(=N/N(C=O)C[n+]1ccccc1)C(CN(CC(C)C)CC(C)C)C(=O)Nc1ccc(C)cc1C (stereo not given) | > 100 | > 100 | > 100 |  | > 100 | > 100 | > 100 | > 100 |  |  |  |  |  |  |  |  |  |  |  | 
